According to patent US12023319B2, “Carboxylic acid aromatic amides” (priority 2016, dated 2024):

Experiments:
[1] = biological target: T1, human Bradykinin B1 receptor (Homo sapiens, UniProt P46663); test: Calcium flux assay (FLIPR), CHO-K1 cells expressing human Bradykinin B1 receptor, absence of 0.1% BSA (hB1 free IC50); type: cell-based; conditions: absence of 0.1% BSA in assay buffer
T1 construct: host or cells: CHO-K1
T1 sequence (P46663 1-353): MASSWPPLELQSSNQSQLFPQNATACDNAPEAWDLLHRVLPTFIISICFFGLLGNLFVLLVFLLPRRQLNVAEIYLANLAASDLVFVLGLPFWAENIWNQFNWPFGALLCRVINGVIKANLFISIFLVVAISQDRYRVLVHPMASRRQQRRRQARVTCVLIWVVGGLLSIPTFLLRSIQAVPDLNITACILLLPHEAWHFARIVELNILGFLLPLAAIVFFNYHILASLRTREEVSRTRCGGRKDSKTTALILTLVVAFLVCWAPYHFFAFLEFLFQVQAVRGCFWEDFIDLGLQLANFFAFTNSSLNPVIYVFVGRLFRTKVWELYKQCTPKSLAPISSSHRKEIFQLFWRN
Procedure, shortened: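 Peak FLIPR fluorescence (538 nm) after B1 agonist peptide addition gave IC50s, scaled between DMSO and full block by 20 µM Lys-(Des-Arg-Leu)-Bradykinin. Compounds were preincubated 30 min at 28° C with calcium-dye-loaded CHO-K1 cells expressing human B1, at 8 concentrations in triplicate, 1% DMSO final.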

[2] = biological target: T2, native human Bradykinin B1 receptor (Homo sapiens, UniProt P46663); test: Calcium flux assay (FLIPR) with IMR-90 human fibroblasts expressing Bradykinin B1 receptor after IL-1beta induction (hB1 IMR-90); type: cell-based; conditions: IMR-90 human fibroblasts after IL-1beta induction, read-out: hB1 IMR90 IC50
T2 construct: which express native human Bradykinin B1 receptor after induction with human IL-1beta; Coriell Institute; host or cells: IMR-90 human foetal lung fibroblasts, induced with human IL-1beta
T2 sequence (P46663 1-353): T1 sequence (P46663 1-353)
Description: Calcium Flux Assay (FLIPR) with Human Fibroblasts Expressing Bradykinin B1 Receptor (hB1 IMR-90)
The Calcium flux Assay was carried out utilising IMR-90 human foetal lung fibroblasts (American Type Culture Collection, Rockville, MD; and Coriell Institute, Camden, New Jersey), which express native human Bradykinin B1 receptor after induction with human IL-1beta.
The fibroblasts were cultured in complete growth media comprised of Dulbecco's modified Eagle's medium (DMEM; Sigma) containing 10% foetal bovine serum, 4 mM L-glutamine, and 1% nonessential amino acids. The cells were maintained in a humidified atmosphere with 5% CO2 at 37° C. and were sub-cultured at a ratio of 1:3, every other day.
For the assay, IMR-90 fibroblasts were harvested using TrypLE Express (GIBCO/Invitrogen) and seeded into 384-well plates (Corning Cellbinding Surface, Cat. 3683) at a density of 15000 cells/well. The following day, cells were treated with 0.35 ng/mL human IL-1beta in 10% FBS/MEM for 3 h to up-regulate Bradykinin B1 receptor. Induced cells were loaded with fluorescent calcium indicator by incubation with 2.5 μM Fluo-4/AM (Invitrogen) at 37° C., 5% CO2 for 2 h in the presence of 2.5 mM probenecid in 1% FBS/MEM. […] Compound examples were assayed at 8 concentrations in triplicate. […] A peptide antagonist Lys-(Des-Arg-Leu)-Bradykinin (Bachem, Brackley) at 20 µM was used to determine the full inhibition as control. IC50 values were determined by the same way described for the FLI PR assay with recombinant cells.

| IC50 [1] | IC50 [2] | SMILES |
| --- | --- | --- |
| 0.026 µM | 0.022 µM | O=C(O)c1cc(NC(=O)C2(c3cc(Cl)ccc3F)CC2)ccc1-c1cnn(C2CCC2)c1 [Example 54, 5-({[1-(5-Chloro-2-fluorophenyl)cyclopropyl]carbonyl}amino)-2-(1-cyclobutyl-1H-pyrazol-4-yl)benzoic acid] |
| 0.061 µM | 0.041 µM | CC(C)(C)c1cn(-c2ccc(NC(=O)C3(c4ccc(C(F)(F)F)cc4F)CC3)cc2C(=O)O)cn1 [Example 67, 2-(4-tert-Butyl-1H-imidazol-1-yl)-5-[({1-[2-fluoro-4-(trifluoromethyl)phenyl]cyclopropyl}carbonyl)amino]benzoic acid] |
| 0.034 µM | 0.049 µM | CC(C)n1cc(-c2ccc(NC(=O)C3(c4ccc(C(F)(F)F)cc4F)CC3)cc2C(=O)O)cn1 [Example 70, 5-[({1-[2-Fluoro-4-(trifluoromethyl)phenyl]cyclopropyl}carbonyl)amino]-2-[1-(propan-2-yl)-1H-pyrazol-4-yl]benzoic acid] |
| 0.021 µM | 0.044 µM | CC(C)(C)n1cc(-c2ccc(NC(=O)C3(c4ccc(OC(F)(F)F)cc4F)CC3)cc2C(=O)O)cn1 [Example 73, 2-(1-tert-Butyl-1H-pyrazol-4-yl)-5-[({1-[2-fluoro-4-(trifluoromethoxy)phenyl]cyclopropyl}carbonyl)amino]benzoic acid] |
| 0.017 µM | 0.015 µM | CC(C)Cn1cc(-c2ccc(NC(=O)C3(c4ccc(C(F)(F)F)cc4F)CC3)cc2C(=O)O)cn1 [Example 74, 5-[({1-[2-Fluoro-4-(trifluoromethyl)phenyl]cyclopropyl}carbonyl)amino]-2-[1-(2-methylpropyl)-1H-pyrazol-4-yl]benzoic acid] |
| 0.011 µM | 0.018 µM | CC(C)Cn1cc(-c2ccc(NC(=O)C3(c4ccc(OC(F)(F)F)cc4F)CC3)cc2C(=O)O)cn1 [Example 75, 5-[({1-[2-Fluoro-4-(trifluoromethoxy)phenyl]cyclopropyl}carbonyl)amino]-2-[1-(2-methylpropyl)-1H-pyrazol-4-yl]benzoic acid] |
| 0.017 µM | 0.013 µM | CC(C)(C)Cn1cc(-c2ccc(NC(=O)C3(c4ccc(OC(F)(F)F)cc4F)CC3)cc2C(=O)O)cn1 [Example 77, 2-[1-(2,2-Dimethylpropyl)-1H-pyrazol-4-yl]-5-[({1-[2-fluoro-4-(trifluoromethoxy)phenyl]cyclopropyl}carbonyl)amino]benzoic acid] |
| 0.032 µM | 0.01 µM | CC(C)n1cc(-c2c(F)cc(NC(=O)C3(c4ccc(C(F)(F)F)cc4F)CC3)cc2C(=O)O)cn1 [Example 88, 3-Fluoro-5-[({1-[2-fluoro-4-(trifluoromethyl)phenyl]cyclopropyl}carbonyl)amino]-2-[1-(propan-2-yl)-1H-pyrazol-4-yl]benzoic acid] |
| 0.032 µM | 0.014 µM | CC(C)n1cc(-c2c(F)cc(NC(=O)C3(c4ccc(OC(F)(F)F)cc4F)CC3)cc2C(=O)O)cn1 [Example 89, 3-Fluoro-5-[({1-[2-fluoro-4-(trifluoromethoxy)phenyl]cyclopropyl}carbonyl)amino]-2-[1-(propan-2-yl)-1H-pyrazol-4-yl]benzoic acid] |
| 0.02 µM | 0.0076 µM | CC(C)(C)c1cn(-c2c(F)cc(NC(=O)C3(c4ccc(OC(F)(F)F)cc4F)CC3)cc2C(=O)O)cn1 [Example 91, 2-(4-tert-Butyl-1H-imidazol-1-yl)-3-fluoro-5-[({1-[2-fluoro-4-(trifluoromethoxy)phenyl]cyclopropyl}carbonyl)amino]benzoic acid] |
| 0.013 µM | 0.021 µM | O=C(O)c1cc(NC(=O)C2(c3ccc(OC(F)(F)F)cc3F)CC2)cc(F)c1-c1ccc(C(F)F)nc1 [Example 95, 2-[6-(Difluoromethyl)pyridin-3-yl]-3-fluoro-5-[({1-[2-fluoro-4-(trifluoromethoxy)phenyl]cyclopropyl}carbonyl)amino]benzoic acid] |
| 0.01 µM | 0.025 µM | CCC(F)(F)c1ccc(-c2c(F)cc(NC(=O)C3(c4ccc(OC(F)(F)F)cc4F)CC3)cc2C(=O)O)cn1 [Example 97, 2-[6-(1,1-Difluoropropyl)pyridin-3-yl]-3-fluoro-5-[({1-[2-fluoro-4-(trifluoromethoxy)phenyl]cyclopropyl}carbonyl)amino]benzoic acid] |
| 0.0089 µM | 0.013 µM | O=C(O)c1cc(NC(=O)C2(c3ccc(C(F)(F)F)cc3F)CC2)cc(Cl)c1-c1cnn(C2CCC2)c1 [Example 100, 3-Chloro-2-(1-cyclobutyl-1H-pyrazol-4-yl)-5-[({1-[2-fluoro-4-(trifluoromethyl)phenyl]cyclopropyl}carbonyl)amino]benzoic acid] |
| 0.0035 µM | 0.0055 µM | O=C(O)c1cc(NC(=O)C2(c3ccc(OC(F)(F)F)cc3F)CC2)cc(Cl)c1-c1cnn(C2CCC2)c1 [Example 101, 3-Chloro-2-(1-cyclobutyl-1H-pyrazol-4-yl)-5-[({1-[2-fluoro-4-(trifluoromethoxy)phenyl]cyclopropyl}carbonyl)amino]benzoic acid] |
| 0.017 µM | 0.074 µM | CCC(F)(F)c1ccc(-c2c(Cl)cc(NC(=O)C3(c4ccc(C(F)(F)F)cc4F)CC3)cc2C(=O)O)cn1 [Example 105, 3-Chloro-2-[6-(1,1-difluoropropyl)pyridin-3-yl]-5-[({1-[2-fluoro-4-(trifluoromethyl)phenyl]cyclopropyl}carbonyl)amino]benzoic acid] |
| 0.0084 µM | 0.035 µM | CCC(F)(F)c1ccc(-c2c(Cl)cc(NC(=O)C3(c4ccc(OC(F)(F)F)cc4F)CC3)cc2C(=O)O)cn1 [Example 106, 3-Chloro-2-[6-(1,1-difluoropropyl)pyridin-3-yl]-5-[({1-[2-fluoro-4-(trifluoromethoxy)phenyl]cyclopropyl}carbonyl)amino]benzoic acid] |
| 0.022 µM | 0.036 µM | Cc1cc(NC(=O)C2(c3ccc(C(F)(F)F)cc3F)CC2)cc(C(=O)O)c1-c1cnn(C2CCC2)c1 [Example 107, 2-(1-Cyclobutyl-1H-pyrazol-4-yl)-5-[({1-[2-fluoro-4-(trifluoromethyl)phenyl]cyclopropyl}carbonyl)amino]-3-methylbenzoic acid] |
| 0.014 µM | 0.013 µM | Cc1cc(NC(=O)C2(c3ccc(OC(F)(F)F)cc3F)CC2)cc(C(=O)O)c1-c1cnn(C2CCC2)c1 [Example 108, 2-(1-Cyclobutyl-1H-pyrazol-4-yl)-5-[({1-[2-fluoro-4-(trifluoromethoxy)phenyl]cyclopropyl}carbonyl)amino]-3-methylbenzoic acid] |

| SMILES | IC50 [1] | IC50 [2] |
| --- | --- | --- |
| CCC(F)(F)c1ccc(-c2c(F)cc(NC(=O)C3(c4ccc(C(F)(F)F)cc4F)CC3)cc2C(=O)O)cn1 [Example 96, 2-[6-(1,1-Difluoropropyl)pyridin-3-yl]-3-fluoro-5-[({1-[2-fluoro-4-(trifluoromethyl)phenyl]cyclopropyl}carbonyl)amino]benzoic acid] | 0.0081 µM | 0.025 µM |
